Assay results: the supplement of paper PMC10307832

What was measured:
Experiment in all cases: relative viability (nuclei count vs DMSO), 5 days (fraction); higher = more cells survive
Lapatinib = compound: CS(=O)(=O)CCNCc1ccc(-c2ccc3ncnc(Nc4ccc(OCc5cccc(F)c5)c(Cl)c4)c3c2)o1 [Lapatinib]
Method in brief: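 Following overnight incubation at 37 °C, lung cancer cell lines in 1536-well plates were pinned with five library-drug doses (not always all listed) in √10 steps on vehicle-anchored plates. The cells then spent 5 days without medium change before a combined fix, permeabilisation and Hoechst stain, 4× imaging and MetaXpress nuclear counts. Viability is the treated-to-vehicle ratio of nuclei, taken as the median across plates. Only plates with control CV below 25% and at least one doubling passed.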

Lapatinib + OSI-027 = compound: CS(=O)(=O)CCNCc1ccc(-c2ccc3ncnc(Nc4ccc(OCc5cccc(F)c5)c(Cl)c4)c3c2)o1 [Lapatinib] + COc1cccc2cc(-c3nc([C@H]4CC[C@H](C(=O)O)CC4)n4ncnc(N)c34)[nH]c12 [OSI-027] (partner 0.5 µM)
Method in brief: (§1)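 Each reported value is a median over duplicate plates. It expresses relative viability: treated-well nuclei count divided by vehicle-well nuclei count. Lung cancer cell lines in 1536-well plates were dosed by pin tool a day after seeding, alone with one drug or with a fixed anchor-drug dose plus five library-drug doses (not always all listed) in √10 steps, and nuclei were counted after 5 days.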

Lapatinib + Tozasertib = compound: CS(=O)(=O)CCNCc1ccc(-c2ccc3ncnc(Nc4ccc(OCc5cccc(F)c5)c(Cl)c4)c3c2)o1 [Lapatinib] + Cc1cc(Nc2cc(N3CCN(C)CC3)nc(Sc3ccc(NC(=O)C4CC4)cc3)n2)n[nH]1 [Tozasertib] (partner 0.1 µM)
Method in brief: as §1

Wnt-C59 + Dasatinib = compound: CC1=NC=CC(=C1)C2=CC=C(C=C2)CC(=O)NC3=CC=C(C=C3)C4=CN=CC=C4 [Wnt-C59] + Cc1nc(Nc2ncc(C(=O)Nc3c(C)cccc3Cl)s2)cc(N2CCN(CCO)CC2)n1 [Dasatinib] (partner 0.075 µM)
Method in brief: as §1

Cell Line	relative viability (Lapatinib; 0.06325 µM)	relative viability (Lapatinib; 0.2 µM)	relative viability (Lapatinib; 0.6325 µM)	relative viability (Lapatinib; 2 µM)	relative viability (Lapatinib; 2 µM, anchor plate)	relative viability (Lapatinib + OSI-027; first compound 0.06325 µM)	relative viability (Lapatinib + OSI-027; first compound 0.2 µM)	relative viability (Lapatinib + OSI-027; first compound 0.6325 µM)	relative viability (Lapatinib + OSI-027; first compound 2 µM)	relative viability (Lapatinib + Tozasertib; first compound 0.06325 µM)	relative viability (Lapatinib + Tozasertib; first compound 0.2 µM)	relative viability (Lapatinib + Tozasertib; first compound 0.6325 µM)	relative viability (Lapatinib + Tozasertib; first compound 2 µM)	relative viability (Wnt-C59 + Dasatinib; first compound 0.001 µM)	relative viability (Wnt-C59 + Dasatinib; first compound 0.01 µM)	relative viability (Wnt-C59 + Dasatinib; first compound 0.03162 µM)	relative viability (Wnt-C59 + Dasatinib; first compound 0.1 µM)	relative viability (Lapatinib; 0.02 µM)	relative viability (Lapatinib + OSI-027; first compound 0.02 µM)	relative viability (Lapatinib + Tozasertib; first compound 0.02 µM)
HCC-366	1.02	0.981	1.02	0.99	1.02	0.58	0.838	0.859	0.373	0.0794	0.0593	0.0794	0.0545	0.678	0.621	0.594	0.487			
HCC-827	0.983	1.05	1			0.7	0.691	0.71	0.661	0.418	0.414	0.412	0.144	0.386	0.305	0.366	0.428	0.91	0.54	0.41
HOP-62	1.04	1.01	1.02	1.01	1.04	0.756	0.89	0.866	0.914	0.343	0.377	0.343	0.295	0.696	0.66	0.716	0.697	0.7	0.486	0.334
IA-LM	0.977	1.04	0.902	0.983	0.848													0.816		
LC-2-ad	0.895	0.984	0.983	0.896	0.967	0.49	0.767	0.764	0.619	0.392	0.444	0.456	0.372	0.696	0.73	0.53	0.559			
LCLC-97TM1		1.08	1	1.03	1.01		0.564	0.497	0.503		0.214	0.229	0.176	0.764	0.75	0.772	0.889			
LCLC-103H	0.951	0.997	1.02	0.975		0.372	0.429	0.417	0.436	0.448	0.455	0.407	0.384	0.509	0.471	0.493	0.516	0.779	0.409	0.419
LK-2		0.914	1.13	1.11	1.02		0.228	0.238	0.228		0.174	0.146	0.19	0.379	0.372	0.268	0.292	0.852	0.217	
LOU-NH91	0.785	0.844	0.844	0.74	0.799	0.577	0.51	0.589	0.453	0.504	0.524	0.51	0.427	0.6	0.529	0.523	0.57	0.569	0.608	0.643
LU99A	0.757	0.852	0.871	0.897	1.03	0.244	0.297	0.293	0.284	0.293	0.239	0.195	0.216	0.55	0.506	0.501	0.538	0.883	0.283	0.281
LXF-289	0.993	0.96	0.957	0.869	0.915	0.477	0.796	0.714	0.723	0.155	0.177	0.173	0.168	0.251	0.25	0.231	0.221	0.923	0.16	0.178
NCI-H23		1.02	1.06	0.938	1.11		0.51	0.639	0.504		0.29	0.307	0.218	0.885	0.734	0.829	0.698			
NCI-H322M	0.717	0.896	0.882	0.733	0.598	0.374	0.571	0.46	0.431	0.457	0.395	0.477	0.343	0.266	0.26	0.216	0.228	0.886	0.591	0.437
NCI-H358	0.478	0.611	0.569	0.335	0.474	0.285	0.439	0.285	0.215	0.0876	0.0913	0.078	0.0817	0.177	0.154	0.145	0.152	0.693	0.567	0.0946
NCI-H441	0.735	0.995	1.09	1.36		0.34	0.53	0.559	0.617	0.551	0.491	0.462	0.454	0.56	0.637	0.615	0.298			
NCI-H1299	1.02	1	0.99	1.01	0.95													0.985		
NCI-H1563	0.832	0.936	0.909	0.88	0.977	0.654	0.772	0.715	0.715					0.456	0.509	0.475	0.468	1.04	0.716	
NCI-H1648	0.667	0.548	0.625	0.392		0.306	0.289	0.288	0.268	0.215	0.689	0.361	0.325					0.671	0.266	0.361
NCI-H1703	0.895	0.944	1.01	0.825	1.05													0.907		
NCI-H1792		0.928	1	0.762	0.919		0.558	0.533	0.31					0.753	0.771	0.992	0.718		0.665	
